{"source": "paper PMC5759193", "about": "“The tankyrase inhibitor G007-LK inhibits small intestine LGR5^+ stem cell proliferation without altering tissue morphology” (Biological Research, 2018)", "key": {"duodenum": {"test_system": "duodenum", "assay": "Duodenal morphology and cellular composition (H&E, PAS, Alcian blue, Lysozyme, Chromogranin A)", "assay_type": "in vivo, mice", "procedure": "(§1) Mouse tissue was fixed overnight in 4% PFA, routinely processed and paraffin embedded. The paraffin-embedded tissue was sectioned at 3–4.5 μm. IHC staining was performed as previously described, with primary antibodies against β-catenin, green fluorescent protein (GFP), Lysozyme and Chromogranin A (rabbit monoclonal anti-β-catenin, Abcam ab32572; rabbit monoclonal anti-GFP, Cell Signaling Technology #2956; rabbit monoclonal anti-Lysozyme, Abcam ab108508; rabbit polyclonal anti-Chromogranin A, Abcam ab15160). For quantitative analyses of the IHC-stained tissue sections, the slides were scanned using the Hamamatsu Digital Slide Scanner NanoZoomer 2.0-HT C9600-13 and the number of positive and negative cells in up to 10 crypts or villi from each animal was counted manually. Periodic acid-Schiff (PAS) and Alcian blue staining was performed at the Department of Pathology, Oslo University Hospital, using standard protocols.\nSimilar data for the goblet cells were obtained by Alcian blue staining of acidic mucin (Additional file 5: Figure S4A–C)."}, "[1]": {"settings": "cited from earlier work"}, "[2]": {"assay": "Tolerance: body mass, food consumption, clinical observations", "description": "Medicilon Preclinical Research (Shanghai) LCC performed the pharmacokinetic studies; in brief, ICR mice (n = 25) from Sion-British SIPPR/BK Lab Animal Ltd, Shanghai were fed 100 mg G007-LK/kg chow enriched diet ad libitum for 3 consecutive days, body mass and food consumption was measured daily.\nThe body mass of the G007-LK-treated mice and the amount of consumed chow was measured 5 days per week. […] The mice were treated with G007-LK for 9 days by oral gavage or 21 days with the enriched diet.\nThe tolerance of G007-LK treatment in the experimental mice used in this study was further evaluated by short-term oral gavage treatment daily for 9 days with 10 or 50 mg G007-LK/kg body mass (Fig. 1d). […] For long-term treatment, mice were fed G007-LK-enriched diets, 100 or 1000 mg G007-LK/kg chow for up to 3 weeks (Fig. 1f)."}, "canonical WNT signalling": {"test_system": "canonical WNT signalling", "assay": "β-catenin IHC of duodenal crypt base cells", "assay_type": "in vivo, mice", "settings": "gavage 10 mg/kg n = 2 and 50 mg/kg n = 1", "procedure": "as §1\nTo verify that the administered doses of the tankyrase inhibitor had the expected effect on canonical WNT signalling, we stained duodenal tissue sections with a β-catenin-specific antibody. Nuclear localisation of β-catenin implied active canonical WNT signalling in vehicle (n = 3), (Fig. 4a) and G007-LK-treated (gavage 10 mg/kg, n = 2 and 50 mg/kg, n = 1) mice (Fig. 4b)."}, "[3]": {"assay": "Pharmacokinetic analysis in plasma after G007-LK enriched chow", "assay_type": "in vivo, ICR mice", "settings": "for G007-LK Concentration in plasma, Mean: n=5; for Cmax: 0 h", "procedure": "To address the pharmacokinetic properties of the tankyrase inhibitor G007-LK, ICR mice (n = 25) were treated for 3 days with a G007-LK-enriched diet, containing 100 mg G007-LK/kg chow. […] Pharmacokinetic parameters of G007-LK following administration of enriched diet for three consecutive days are listed in Table 1."}, "duodenal crypt cells": {"test_system": "duodenal crypt cells", "assay": "BrdU labelling of duodenal crypt cells", "assay_type": "in vivo, mice", "settings": "100 mg/kg chow", "procedure": "Slides with tissue sections were deparaffinised in xylene and re-hydrated through a graded series of ethanol. Heat-antigen retrieval was performed in 10 mM sodium-citrate buffer supplemented with 0.05% Tween 20 in a pressure cooker for 3 min and the slides were slowly cooled down. Slides were rinsed in washing buffer (PBS supplemented with 0.1% Tween), incubated with blocking buffer (PBS supplemented with 5% goat serum and 5% bovine serum albumin (BSA)) for 30 min at room temperature and rinsed in washing buffer. Primary antibodies (mouse monoclonal anti-BrdU, ThermoFisher #B35128; monoclonal anti-GFP, Cell Signalling #2956) diluted in blocking buffer were applied and incubated over night at 4 °C. […]\nMice were treated with BrdU (100 mg/kg body mass) 1 h before being sacrificed or with daily 1 mg BrdU injections for 7 days prior to sacrifice. […] BrdU-labelled cells were detected using a BrdU IHC kit (Abcam #125306) according to the manufacturer’s protocol, or using a monoclonal anti-BrdU antibody (ThermoFisher #B35128) and a Mouse-on-Mouse kit (Vector Laboratories #BMK-2202) according to the IHC protocol outlined above. The fraction of BrdU-labelled crypt cells was calculated."}, "[4]": {"test_system": "LGR5^+ intestinal stem cells", "assay": "Lineage tracing from LGR5^+ intestinal stem cells in duodenum (confocal microscopy, GFP IHC)", "procedure": "Pieces of duodenum from mice that had undergone induced lineage tracing were fixed for 30 min in 4% paraformaldehyde (PFA) at room temperature, rinsed in PBS and immediately prepared for confocal microscopic analyses. Under a stereo microscope one row of intestinal villi was sectioned from the duodenal wall with a scalpel, rinsed in dH2O and embedded in Mowiol 4-88 (Sigma-Aldrich). The samples were examined with a Zeiss LSM 780 confocal microscope (Carl Zeiss MicroImaging GmbH) equipped with a multiline argon laser (458/488/514 nm), a 10 mW DPSS laser (561 nm), a 405-30 CW laser diode (405 nm), and a helium–neon (HeNe) laser (633 nm). The objective used was a Zeiss Plan-Apochromat 20×/0.8 DIC II. To calculate the numbers and volumes of the traced cells, confocal Z-stacks were analysed with Imaris 7.7.2 (Bitplane AG). A similar threshold for the segmentation of the traced cells was used in all Z-stacks examined. Image visualisations were performed with the basic Zeiss LSM 780 ZEN 2010 software, Photoshop CS4 (Adobe), and Imaris 7.7.2.\nas §1"}, "[5]": {"settings": "6 months, 158 mg/kg chow, high fat-based diet"}, "[6]": {"settings": "ICR mice, 100 mg G007-LK/kg chow, 3 days"}, "[7]": {"settings": "ICR mice, female, diet containing G007-LK 100 mg/kg chow 3 days, plasma"}}, "note": "Where “and” joins values, the source holds several entries; their conditions need not be identical. Equal values may be shown once. Read-outs that look alike come from different tables or passages of the source."}
{"smiles": "CS(=O)(=O)c1ccc(-c2nnc(/C=C/c3nnc(-c4ccc(C#N)cc4)o3)n2-c2ccccc2Cl)nc1", "note": "[G007-LK]", "values": [{"measurement": "gross morphology of the duodenum (crypts and villi), H&E", "setting": "duodenum; 9 days gavage 10 or 50 mg/kg, 21 days enriched diet 100 or 1000 mg/kg chow", "value": "maintained"}, {"measurement": "crypt abscesses", "setting": "duodenum; distal duodenum and ileum", "value": "occasional crypt abscesses were observed"}, {"measurement": "morphology of epithelial cell layer", "setting": "duodenum; distal duodenum and ileum", "value": "did not induce major morphological changes"}, {"measurement": "distribution of Paneth cells in crypt base (Lysozyme IHC) vs control", "setting": "duodenum; duodenum", "value": "equal distribution pattern"}, {"measurement": "distribution of enteroendocrine cells (Chromogranin A IHC) vs control", "setting": "duodenum; duodenum", "value": "comparable distribution patterns"}, {"measurement": "number of PAS stained goblet cells vs vehicle", "setting": "duodenum; duodenum, gavage 50 mg/kg", "value": "no significant difference"}, {"measurement": "crypt:villus ratios, crypt duplication rates or size, goblet cell number or size, crypts per villus base", "setting": "duodenum; proximal duodenum, gavage treated vs control", "value": "no statistically significant (t test, p > 0.05) changes"}, {"measurement": "glucose metabolism", "setting": "[1]; [5]", "value": "improved glucose tolerance and insulin sensitivity"}, {"measurement": "toxic effects", "setting": "[1]; [5]", "value": "did not lead to visible toxic effects"}, {"measurement": "small intestine toxicity", "setting": "[1]; intermediate and high doses, up to 100 mg/kg body mass once daily 14–20 days, i.p. or orally", "value": "partially reversible focal necrosis and inflammation in the small intestine"}, {"measurement": "changes in body mass", "setting": "[2]; [6]", "value": "minor, not statistically significant"}, {"measurement": "food consumption", "setting": "[2]; [6]", "value": "stable day 2 and 3 of the G007-LK enriched chow administration period, but statistically significant lower (t test, p < 0.05) the first day"}, {"measurement": "macroscopic phenotypes", "setting": "[2]; [6]", "value": "No obvious macroscopic abnormal phenotypes were observed"}, {"measurement": "tolerability", "setting": "[2]; daily doses up to approximately 200 mg/kg body mass, gavage or enriched diet", "value": "well tolerated"}, {"measurement": "fraction of β-catenin-positive nuclei in crypt base cells vs control", "setting": "canonical WNT signalling", "value": "significant (t test, p < 0.05) reduction"}, {"measurement": "G007-LK Concentration in plasma, single animals G1-1 to G1-5", "setting": "[3]; 0 h after diet removal", "value": "773,96 ng/mL and 795,28 ng/mL and 756,04 ng/mL and 696,04 ng/mL and 791,2 ng/mL"}, {"measurement": "G007-LK Concentration in plasma, Mean", "setting": "[3]; 0 h after diet removal", "value": "762,5 ng/mL"}, {"measurement": "G007-LK Concentration in plasma, single animals G1-1 to G1-5", "setting": "[3]; 1 h after diet removal", "value": "676,41 ng/mL and 696,8 ng/mL and 608,34 ng/mL and 669,24 ng/mL and 689,94 ng/mL"}, {"measurement": "G007-LK Concentration in plasma, Mean", "setting": "[3]; 1 h after diet removal", "value": "668,15 ng/mL"}, {"measurement": "G007-LK Concentration in plasma, single animals G1-1 to G1-5", "setting": "[3]; 2 h after diet removal", "value": "639,46 ng/mL and 649,54 ng/mL and 610,19 ng/mL and 589,18 ng/mL and 567,65 ng/mL"}, {"measurement": "G007-LK Concentration in plasma, Mean", "setting": "[3]; 2 h after diet removal", "value": "611,2 ng/mL"}, {"measurement": "G007-LK Concentration in plasma, single animals G1-1 to G1-5", "setting": "[3]; 4 h after diet removal", "value": "335,27 ng/mL and 378,3 ng/mL and 216,65 ng/mL and 474,86 ng/mL and 316,33 ng/mL"}, {"measurement": "G007-LK Concentration in plasma, Mean", "setting": "[3]; 4 h after diet removal", "value": "344,28 ng/mL"}, {"measurement": "G007-LK Concentration in plasma, single animals G1-1 to G1-5", "setting": "[3]; 12 h after diet removal", "value": "52,75 ng/mL and 105,7 ng/mL and 112,65 ng/mL and 158,02 ng/mL and 111,12 ng/mL"}, {"measurement": "G007-LK Concentration in plasma, Mean", "setting": "[3]; 12 h after diet removal", "value": "108,05 ng/mL"}, {"measurement": "Cmax", "setting": "[3]; ICR mice, diet containing G007-LK 100 mg/kg chow 3 days, plasma, read-out: Cmax", "value": "1440 ± 80", "unit": "nM"}, {"measurement": "AUC(0-t)", "setting": "[3]; [7]", "value": 4119.80, "unit": "ng·h/mL"}, {"measurement": "AUC(0-∞)", "setting": "[3]; [7]", "value": 4770.32, "unit": "ng·h/mL"}, {"measurement": "Cmax", "setting": "[3]; [7]", "value": 762.50, "unit": "ng/mL"}, {"measurement": "t1/2", "setting": "[3]; ICR mice, female, diet containing G007-LK 100 mg/kg chow ad libitum 3 days, plasma, non-compartmental", "value": 4.17, "unit": "h"}, {"measurement": "F^a bioavailability", "setting": "[3]; enriched chow vs IV data of ref 26, calculated from AUC(0-t)", "value": 22.22, "unit": "%"}, {"measurement": "F^b bioavailability", "setting": "[3]; enriched chow vs IV data of ref 26, calculated from AUC(0-∞)", "value": 20.69, "unit": "%"}, {"measurement": "BrdU-labelled cells after daily BrdU for 7 days", "setting": "duodenal crypt cells; n = 3", "value": "BrdU-labelled cells were observed at the tips of the villi"}, {"measurement": "ratio of BrdU positive crypt cells", "setting": "duodenal crypt cells; n = 7, BrdU 1 h (control 0.28), p < 0.05", "value": 0.14}, {"measurement": "lineage tracing after stop of treatment (G007-LK-stop, reversibility)", "setting": "[4]; 100 mg/kg chow 2 weeks, G007-LK-free diet 2 days before tamoxifen, tracing 7 days", "value": "presence of lineage traced cells throughout the entire length of the villi"}, {"measurement": "average ratio of crypts with GFP positive cells versus total counted crypts", "setting": "[4]; GFP IHC, G007-LK treated mice n = 10 (control 0.51)", "value": 0.39}, {"measurement": "reduction of ratio of crypts with GFP positive cells versus total counted crypts, compared with control", "setting": "[4]; GFP IHC, n = 10 treated, p = 0.05", "value": 23, "unit": "%"}, {"measurement": "location of lineage traced cells when treatment starts after tamoxifen", "setting": "[4]; Lgr5-EGFP-CreERT2;R26R-tdTomato mice, 100 mg/kg chow 6 days, started 24–36 h after tamoxifen", "value": "lineage traced cells were detected in the middle of the duodenal villi"}, {"measurement": "number of villi with traced cells vs control", "setting": "[4]; duodenum", "value": "significantly (t test, p < 0.05) reduced"}, {"measurement": "number of lineage traced cells vs control", "setting": "[4]; image analysis, duodenum", "value": "significant (t test, p < 0.05) reduction"}, {"measurement": "volume of lineage traced cells vs control", "setting": "[4]; image analysis, duodenum", "value": "significant (t test, p < 0.05) reduction"}, {"measurement": "lineage tracing from LGR5^+ stem cells", "setting": "[4]; long-term, 100 mg/kg chow, duodenum", "value": "markedly reduced lineage tracing"}]}
